Reference: patent US11230526B1, “Cylcoalkenyl derivatives useful as agonists of the GPR120 and/or GPR40 receptors” (Janssen Pharmaceutica NV, priority 2018, dated 2022)

Key:
Type in all cases: cell-based
[1] = target: T1, short form of the GPR120 receptor (Homo sapiens, UniProt Q5NUL3); assay: Human GPR120 DiscoveRx PathHunter Beta-Arrestin assay, Procedure β-arrestin B
T1 construct: host or cells: PathHunter CHO-K1 GPR120S β-Arrestin Cell Line
Description: Human GPR120 DiscoveRx PathHunter® Beta-Arrestin Assay Assay Principle:
The binding of an agonist (medium/long chain fatty acids or small molecule agonists) to the G-protein-coupled receptor GPR120 activates phospholipase C, leading to release of intracellular Ca^+2 through the generation of inositol 1,4,5-trisphosphate (InsP3 or IP3). GPR120 activation can also trigger intracellular signaling via recruitment of Beta-Arrestin. In the present method, agonist-induced activation of the human GPR120 receptor is monitored through the use of PathHunter® CHO-K1 GPR120 Beta-Arrestin Cell Line engineered by DiscoveRx, as detailed below. The cell lines are designed to co-express both the ProLink/Enzyme Donor (PK)-tagged GPCR and the Enzyme […] (EA)-tagged Beta-Arrestin fusion proteins. Upon GPR120 receptor stimulation/activation, the EA-tagged Beta-Arrestin portion is translocated to the tagged receptor, where the two enzyme fragments are brought within close proximity. Under these conditions, these fragments can interact and form an active Beta-gal enzyme complex through Enzyme Fragment Complementation (EFC). This active Beta-gal complex can enzymatically hydrolyse the substrate to produce a detectable light signal; therefore, activation as a function of agonist concentration can be expressed as an EC50 value to determine relative compound activities. This in vitro assay therefore serves to assess compound agonist activity of the GPR120.
In Procedure β-arrestin B the cells used were PathHunter® CHO-K1 GPR120S β-Arrestin Cell Line, expressing the short form of the GPR120 receptor (Accession #[…]), with 5000 cells/well.
The selected CHO-K1 GPR120 β-Arrestin cells were cultured in Ham's F12 media supplemented with 10% fetal bovine serum (FBS), 1% Glutamine, 1×p/s, 800 μg/mL G418 and 300 μg/mL Hygromycin B (for selection). Cell stocks were maintained and grown in a sub-confluent state using standard cell culture procedures. The day before the experiment, the cells were harvested with non-enzymatic cell dissociation buffer and re-suspended in complete growth media at the desired concentration. A Corning 384-plate was then seeded with the proper number of cells in a volume of 25 μL, per well. The seeded plates were incubated overnight at 37° C.
On the day of the experiment, the Assay Buffer containing (a) HBSS with Ca^++ and Mg^++, (b) 20 mM HEPES, and (c) 0.1% BSA stabilizer (pH 7.4) was prepared. The growth medium was gently removed from the cell plates and 20 μL of Assay Buffer added to each well. The plate was then incubated at 37° C. for 60 min. Test compounds were serially diluted in Assay Buffer to desired concentrations (more particularly to one or more of the following μM concentrations: 25, 12.5, 6.25, 3.12, 1.56, 0.78, 0.39, 0.19, 0.10, 0.05, 0.02, 0.01). Five μL of compound dilution was then added to each well and the plate incubated at 37° C. for 90 min. The detection reagents were prepared according to the manufacture's instruction. Twelve μL of the detection reagents were added to each well and the plate incubated at room temperature for 60 min.
The plates were read on an EnVision instrument, using Protocol name: Luminescence, Plate type: 384 Costar, Measurement height: 3 mm, Measurement time: 1 s, Aperture: 384 Plate aperture. The % Activity relative to the positive control was calculated using the following equation:
The % Activity values were plotted versus the concentration of test compound and fitted to a sigmoidal dose-response curve with a Hill slope=1 (fixed value) using nonlinear regression with GraphPad Prism 5.0 to calculate the EC50 values. The Fitting Equation was: Y=Bottom+(Top-Bottom)/(1+10^((Log EC50−X)*HillSlope)), where X is the log of the concentration and Y is the response.

Human GPR120 short form [2] = target: T2, Human GPR120 short form (Homo sapiens, UniProt Q5NUL3); assay: Human GPR120 calcium flux assay, Procedure Calcium B (4200 cells/well)
T2 construct: expressed in transfected cells
T2 sequence (Q5NUL3 1-361): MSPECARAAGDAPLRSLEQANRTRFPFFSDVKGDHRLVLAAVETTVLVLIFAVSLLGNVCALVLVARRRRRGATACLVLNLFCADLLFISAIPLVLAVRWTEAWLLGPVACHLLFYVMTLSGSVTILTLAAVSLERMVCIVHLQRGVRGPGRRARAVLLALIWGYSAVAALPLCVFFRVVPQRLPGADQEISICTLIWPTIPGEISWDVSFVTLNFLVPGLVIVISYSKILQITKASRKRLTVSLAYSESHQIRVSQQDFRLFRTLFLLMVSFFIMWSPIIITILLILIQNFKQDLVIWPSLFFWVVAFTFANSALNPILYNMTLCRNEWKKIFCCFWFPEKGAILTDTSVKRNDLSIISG
Procedure, shortened: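 HEK293 cells stably expressing human GPR120 (NM_001195755.1), 4200 cells/well, starved 1 h and loaded with Fluo-4 NW plus probenecid. Ligand-evoked calcium flux read on FLIPR for 300 s after a 10 s baseline. RFU = Fmax−Fmin; EC50 from four-parameter concentration-response fit.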

human GPR40 = target: T3, human GPR40 (Homo sapiens, UniProt O14842); assay: GPR40 calcium flux assay, human GPR40; settings: HEK293 cells stably expressing GPR40; table does not say human or rat
T3 construct: expressed in transfected cells
T3 sequence (O14842 whole entry): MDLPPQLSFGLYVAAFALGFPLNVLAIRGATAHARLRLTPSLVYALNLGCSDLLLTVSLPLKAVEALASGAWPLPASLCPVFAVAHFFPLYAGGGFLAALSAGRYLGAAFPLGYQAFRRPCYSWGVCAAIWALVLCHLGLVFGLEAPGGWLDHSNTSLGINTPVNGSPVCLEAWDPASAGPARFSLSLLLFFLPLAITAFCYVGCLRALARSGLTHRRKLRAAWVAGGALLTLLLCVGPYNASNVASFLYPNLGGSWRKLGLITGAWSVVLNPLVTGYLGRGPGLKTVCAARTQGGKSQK
Procedure, shortened: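 Cells preincubated 1 h at 37° C. in HBSS, 20 mM HEPES, 0.1% BSA, then Fluo 8 calcium dye 30 min at 37° C. and 15 min at room temperature.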

[3] = target: T4, long form of human GPR120 (Homo sapiens, UniProt Q5NUL3); assay: Human GPR120 DiscoveRx PathHunter Beta-Arrestin assay, Procedure β-arrestin A
T4 construct: host or cells: PathHunter CHO-K1 GPR120 β-Arrestin Cell Line
T4 sequence (Q5NUL3 1-377 isoform Q5NUL3-1): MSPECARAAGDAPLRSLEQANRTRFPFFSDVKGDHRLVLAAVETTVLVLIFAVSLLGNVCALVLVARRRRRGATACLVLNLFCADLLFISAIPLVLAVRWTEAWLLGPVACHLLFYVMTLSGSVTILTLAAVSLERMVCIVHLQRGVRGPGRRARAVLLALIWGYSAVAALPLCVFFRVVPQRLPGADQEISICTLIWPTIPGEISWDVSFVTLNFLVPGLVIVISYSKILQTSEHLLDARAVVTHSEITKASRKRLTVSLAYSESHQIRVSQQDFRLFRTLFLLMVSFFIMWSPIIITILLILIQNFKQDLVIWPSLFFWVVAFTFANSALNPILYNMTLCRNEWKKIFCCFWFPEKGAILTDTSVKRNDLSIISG
T4 sequence (P32121 whole entry partner): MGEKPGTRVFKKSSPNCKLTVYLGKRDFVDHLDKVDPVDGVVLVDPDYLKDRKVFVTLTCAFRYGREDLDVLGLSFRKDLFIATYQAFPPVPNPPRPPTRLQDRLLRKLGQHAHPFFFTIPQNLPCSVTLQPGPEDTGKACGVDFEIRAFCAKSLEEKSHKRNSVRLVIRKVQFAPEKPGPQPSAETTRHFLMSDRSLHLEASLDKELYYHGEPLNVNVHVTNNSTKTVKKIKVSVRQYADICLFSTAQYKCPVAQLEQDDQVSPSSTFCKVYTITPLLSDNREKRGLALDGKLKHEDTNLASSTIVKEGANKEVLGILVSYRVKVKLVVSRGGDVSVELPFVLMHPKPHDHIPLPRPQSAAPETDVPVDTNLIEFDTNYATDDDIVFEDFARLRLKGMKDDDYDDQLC
Procedure, shortened: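 PathHunter CHO-K1 cells expressing long-form human GPR120 (3000/well) were seeded overnight. They were then preincubated 60 min in HBSS with 20 mM HEPES and 0.1% BSA, pH 7.4, and exposed to compound for 90 min at 37 °C. β-Arrestin recruitment was read as β-gal complementation luminescence. EC50 came from % activity versus positive control, Hill slope fixed at 1.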

Human GPR120 short form [4] = target: T2, Human GPR120 short form; assay: Human GPR120 calcium flux assay, Procedure Calcium A (2500 cells/well)
Procedure, shortened: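 HEK293 cells stably expressing human GPR120 short isoform (NM_001195755.1), 2500 cells/well, serum-starved 1 h at 37 °C and loaded with Fluo-4 NW plus probenecid. FLIPR fluorescence read for 300 s after compound addition; response = Fmax−Fmin. EC50 from four-parameter concentration–response fit.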

T1 sequence (P32121 whole entry partner, one chain of several): as the sequence (P32121 whole entry partner) above

Row | Compound | EC50 [1] [nM] | EC50 (Human GPR120 short form [2]) [nM] | EC50 (human GPR40) [µM] | EC50 [3] [nM] | EC50 (Human GPR120 short form [4]) [nM]
1 | Cc1c(CCC(=O)O)ccc(OCC2=C(c3ccc(Cl)cc3)CCC2C(F)(F)F)c1C (stereo not drawn) [Compound 12, 3-[4-[[2-(4-chlorophenyl)-5-(trifluoromethyl)cyclopenten-1-yl]methoxy]-2,3-dimethyl-phenyl]Propanoic Acid] | 93 | 481 | > 5 |  | 
2 | O=C(O)CCc1cc(F)c(OCC2=C(c3ccc(Cl)cc3)CCC2C(F)(F)F)c(F)c1 (stereo not drawn) [Compound 33, 3-[4-[[2-(4-chlorophenyl)-5-(trifluoromethyl)cyclopenten-1-yl]methoxy]-3,5-difluoro-phenyl]Propanoic Acid] | 180 | 288 | > 5 | 312 | 
3 | CSc1ccc(C2=C(COc3ccc(CCC(=O)O)c(C)c3C)CCC2)cc1 [Compound 50, 3-[2,3-dimethyl-4-[[2-(4-methylsulfanylphenyl)cyclopenten-1-yl]methoxy]phenyl]Propanoic Acid] | 709 | 183 |  |  | 409
4 | Cc1c(CCC(=O)O)ccc(OCC2=C(c3ccc(C(C)C)cc3)CCC2)c1C [Compound 55, 3-[4-[[2-(4-isopropylphenyl)cyclopenten-1-yl]methoxy]-2,3-dimethyl-phenyl]Propanoic Acid] | 246 | 282 |  |  | 793
5 | Cc1c(CCC(=O)O)ccc(OCC2=C(c3ccc(Br)cc3)CCC2)c1C [Compound 56, 3-[4-[[2-(4-bromophenyl)cyclopenten-1-yl]methoxy]-2,3-dimethyl-phenyl]Propanoic Acid] | 85 | 37 |  |  | 324
6 | Cc1c(CCC(=O)O)ccc(OCC2=C(c3ccc(I)cc3)CCC2)c1C [Compound 57, 3-[4-[[2-(4-iodophenyl)cyclopenten-1-yl]methoxy]-2,3-dimethyl-phenyl]Propanoic Acid] | 258 | 50 |  |  | 527
7 | Cc1ccc(C2=C(COc3ccc(CCC(=O)O)c(F)c3F)CCC2)cn1 [Compound 87, 3-(2,3-difluoro-4-((2-(6-methylpyridin-3-yl)cyclopent-1-en-1-yl)methoxy)phenyl)Propanoic Acid] | 493 |  | > 5 |  | 
8 | [2H]C(C(=O)O)C([2H])c1ccc(OCC2=C(c3ccc(Cl)cc3)CCC2)c(C)c1 (stereo not drawn) [Compound 126-D, 3-(4-((2-(4-chlorophenyl)cyclopent-1-en-1-yl)methoxy)-3-methylphenyl)Propanoic-2,3-d2 Acid] | 45 | 10 | > 5 | 35 | 
9 | Cc1ccc(C2=C(COc3c(F)cc(CCC(=O)O)cc3F)CCC2)cc1N [Compound 135, 3-(4-((2-(3-amino-4-methylphenyl)cyclopent-1-en-1-yl)methoxy)-3,5-difluorophenyl)Propanoic Acid] | 1250 |  | > 5 |  | 
10 | Cc1c(CCC(=O)O)ccc(OCC2=C(c3ccc(C(F)(F)F)cc3)CCCC2)c1C [Compound 460, 3-[2,3-dimethyl-4-[[2-[4-(trifluoromethyl)phenyl]cyclohexen-1-yl]methoxy]phenyl]Propanoic Acid] | 625 | 385 |  |  | 1010
11 | Cc1c(CCC(=O)O)ccc(OCC2=C(c3ccc(F)cc3)CCCC2)c1C [Compound 480, 3-[4-[[2-(4-fluorophenyl)cyclohexen-1-yl]methoxy]-2,3-dimethyl-phenyl]Propanoic Acid] | 385 | 79 |  |  | 234
12 | Cc1c(CCC(=O)O)ccc(OCC2=C(c3cccs3)CCCC2)c1C [Compound 482, 3-[2,3-dimethyl-4-[[2-(2-thienyl)cyclohexen-1-yl]methoxy]phenyl]Propanoic Acid] | 126 | 91 |  |  | 406

Continued by falling EC50 [1], values first:

Row | EC50 [1] [nM] | EC50 (Human GPR120 short form [2]) [nM] | EC50 (human GPR40) [µM] | EC50 [3] [nM] | EC50 (Human GPR120 short form [4]) [nM] | Compound
13 | 478 | 66 |  |  | 462 | Cc1ccc(C2=C(COc3ccc(CCC(=O)O)c(C)c3C)CCCC2)cc1 [Compound 462, 3-[2,3-dimethyl-4-[[2-(p-tolyl)cyclohexen-1-yl]methoxy]phenyl]Propanoic Acid]
14 | 475 | 134 |  |  | 250 | Cc1c(CCC(=O)O)ccc(OCC2=C(c3ccc(Br)cc3)CCCC2)c1C [Compound 481, 3-[4-[[2-(4-bromophenyl)cyclohexen-1-yl]methoxy]-2,3-dimethyl-phenyl]Propanoic Acid]
15 | 203 | 311 | > 5 | 341 |  | O=C(O)CCc1ccc(OCC2=C(c3ccc(Cl)cc3)CCC2C(F)(F)F)c(F)c1F (stereo not drawn) [Compound 32, 3-[4-[[2-(4-chlorophenyl)-5-(trifluoromethyl)cyclopenten-1-yl]methoxy]-2,3-difluoro-phenyl]Propanoic Acid]
16 | 190 | 110 | > 5 | 256 |  | Cc1c(CCC(=O)O)ccc(OCC2=C(c3ccc(F)c(F)c3)CCC2)c1C [Compound 117]
17 | 171 | 195 |  |  | 591 | Cc1c(CCC(=O)O)ccc(OCC2=C(c3ccc(C(F)(F)F)cc3)CCC2)c1C [Compound 75, 3-[2,3-dimethyl-4-[[2-[4-(trifluoromethyl)phenyl]cyclopenten-1-yl]methoxy]phenyl]Propanoic Acid]
18 | 47 | 21 | > 5 |  |  | O=C(O)CCc1ccc(OCC2=C(c3ccc(Cl)cc3)CCC2)c(Br)c1 [Compound 129, 3-[3-bromo-4-[[2-(4-chlorophenyl)cyclopenten-1-yl]methoxy]phenyl]Propanoic Acid]
19 | 41 | 34 | > 5 | 87 |  | O=C(O)CCc1ccc(OCC2=C(c3ccc(Cl)cc3)CCC2)c(I)c1 [Compound 130, 3-[3-iodo-4-[[2-(4-chlorophenyl)cyclopenten-1-yl]methoxy]phenyl]Propanoic Acid]
